Measured values as given in ChEMBL document CHEMBL3991601, “The target landscape of clinical kinase drugs” (Science, 2017).
Calls of active or inactive are those of the source.

Legend:
[1] = target: T1, ATP-dependent RNA helicase DHX30 (Homo sapiens, UniProt Q7L2E3)
T1 sequence (Q7L2E3 whole entry): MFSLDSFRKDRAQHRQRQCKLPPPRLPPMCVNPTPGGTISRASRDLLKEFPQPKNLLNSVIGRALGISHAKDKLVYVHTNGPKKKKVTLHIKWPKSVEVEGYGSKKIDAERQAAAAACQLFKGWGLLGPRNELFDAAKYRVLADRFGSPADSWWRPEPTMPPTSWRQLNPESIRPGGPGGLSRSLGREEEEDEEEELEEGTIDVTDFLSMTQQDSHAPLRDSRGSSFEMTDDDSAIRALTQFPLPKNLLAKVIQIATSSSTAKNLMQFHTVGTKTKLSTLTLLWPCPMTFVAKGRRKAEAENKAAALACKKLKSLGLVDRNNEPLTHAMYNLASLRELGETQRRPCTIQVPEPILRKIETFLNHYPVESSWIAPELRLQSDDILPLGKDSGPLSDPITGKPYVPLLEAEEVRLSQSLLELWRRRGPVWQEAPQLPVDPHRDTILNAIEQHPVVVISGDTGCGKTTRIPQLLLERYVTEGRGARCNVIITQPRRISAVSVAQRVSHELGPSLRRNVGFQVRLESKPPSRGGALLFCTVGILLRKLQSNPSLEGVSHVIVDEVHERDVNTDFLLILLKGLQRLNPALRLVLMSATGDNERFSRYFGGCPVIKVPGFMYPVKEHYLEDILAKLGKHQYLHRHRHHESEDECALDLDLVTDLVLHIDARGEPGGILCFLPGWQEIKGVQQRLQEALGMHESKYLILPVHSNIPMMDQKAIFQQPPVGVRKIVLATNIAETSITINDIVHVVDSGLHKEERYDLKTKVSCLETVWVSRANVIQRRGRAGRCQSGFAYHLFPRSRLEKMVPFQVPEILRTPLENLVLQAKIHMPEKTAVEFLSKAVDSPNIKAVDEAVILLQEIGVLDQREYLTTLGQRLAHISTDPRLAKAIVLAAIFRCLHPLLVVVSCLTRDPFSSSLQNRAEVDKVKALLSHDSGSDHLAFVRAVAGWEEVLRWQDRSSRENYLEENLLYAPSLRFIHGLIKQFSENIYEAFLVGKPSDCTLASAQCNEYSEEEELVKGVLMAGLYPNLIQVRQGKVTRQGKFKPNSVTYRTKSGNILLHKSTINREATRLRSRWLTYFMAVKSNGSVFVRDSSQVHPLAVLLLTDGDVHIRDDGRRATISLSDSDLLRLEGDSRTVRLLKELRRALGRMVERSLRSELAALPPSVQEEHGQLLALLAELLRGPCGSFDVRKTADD

[2] = target: MAP/microtubule affinity-regulating kinase 3 (Homo sapiens, UniProt P27448)
[3] = target: T2, Serine/threonine-protein kinase D2 (Homo sapiens, UniProt Q9BZL6)
T2 sequence (Q9BZL6 whole entry): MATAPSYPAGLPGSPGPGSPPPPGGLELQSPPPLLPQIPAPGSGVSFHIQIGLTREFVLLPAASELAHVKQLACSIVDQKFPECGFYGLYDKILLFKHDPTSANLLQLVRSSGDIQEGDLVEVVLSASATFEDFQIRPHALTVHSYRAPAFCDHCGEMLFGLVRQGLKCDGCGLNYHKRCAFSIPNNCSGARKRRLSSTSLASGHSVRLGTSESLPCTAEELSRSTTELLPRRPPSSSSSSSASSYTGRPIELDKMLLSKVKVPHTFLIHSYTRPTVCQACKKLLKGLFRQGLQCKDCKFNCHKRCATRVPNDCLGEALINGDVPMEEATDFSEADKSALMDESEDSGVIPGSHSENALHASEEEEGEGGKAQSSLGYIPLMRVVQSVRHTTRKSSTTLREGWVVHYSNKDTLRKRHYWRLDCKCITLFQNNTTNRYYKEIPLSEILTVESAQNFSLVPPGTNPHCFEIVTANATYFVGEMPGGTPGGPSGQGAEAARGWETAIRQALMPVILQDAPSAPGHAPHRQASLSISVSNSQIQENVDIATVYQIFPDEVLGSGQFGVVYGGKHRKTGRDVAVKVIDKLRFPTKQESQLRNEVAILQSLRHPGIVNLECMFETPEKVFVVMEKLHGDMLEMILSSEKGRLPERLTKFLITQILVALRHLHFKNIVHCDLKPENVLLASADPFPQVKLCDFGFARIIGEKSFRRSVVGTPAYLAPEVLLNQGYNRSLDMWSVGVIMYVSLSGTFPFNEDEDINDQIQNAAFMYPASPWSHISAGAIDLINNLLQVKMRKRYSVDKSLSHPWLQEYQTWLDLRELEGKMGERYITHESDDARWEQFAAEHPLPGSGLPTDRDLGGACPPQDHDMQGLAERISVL

[4] = target: GTP-binding nuclear protein Ran (Homo sapiens, UniProt P62826)
Note: in the data inactive means no Kd found up to 30 µM.

Chain of MAP/microtubule affinity-regulating kinase 3 (P27448 whole entry): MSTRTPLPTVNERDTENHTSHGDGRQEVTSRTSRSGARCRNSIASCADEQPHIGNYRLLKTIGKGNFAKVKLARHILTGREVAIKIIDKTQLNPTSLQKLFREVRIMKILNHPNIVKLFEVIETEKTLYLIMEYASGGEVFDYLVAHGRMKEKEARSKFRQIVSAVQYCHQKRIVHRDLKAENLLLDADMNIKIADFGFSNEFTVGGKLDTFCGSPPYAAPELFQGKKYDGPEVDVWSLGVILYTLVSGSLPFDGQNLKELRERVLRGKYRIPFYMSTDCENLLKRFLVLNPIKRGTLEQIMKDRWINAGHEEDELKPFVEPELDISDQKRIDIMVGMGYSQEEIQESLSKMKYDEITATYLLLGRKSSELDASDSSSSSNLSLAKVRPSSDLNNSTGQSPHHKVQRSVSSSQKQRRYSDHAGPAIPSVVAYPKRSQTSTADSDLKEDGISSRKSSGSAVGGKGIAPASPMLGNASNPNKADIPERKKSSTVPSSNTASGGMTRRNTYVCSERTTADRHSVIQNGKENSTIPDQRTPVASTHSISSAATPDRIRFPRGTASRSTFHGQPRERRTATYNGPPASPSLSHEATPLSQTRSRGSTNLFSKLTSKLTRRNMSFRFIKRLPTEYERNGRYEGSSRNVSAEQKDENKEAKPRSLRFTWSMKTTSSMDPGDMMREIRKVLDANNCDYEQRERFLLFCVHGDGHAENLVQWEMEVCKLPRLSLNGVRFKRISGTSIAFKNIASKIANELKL

Row | Kd [1] | Kd [2] | Kd [3] | Kd [4] | Structure (SMILES)
1 | > 30 µM (inactive) | > 30 µM (inactive) | > 30 µM (inactive) | > 30 µM (inactive) | Cn1cnc2c(F)c(Nc3ccc(Br)cc3F)c(C(=O)NOCCO)cc21 [BINIMETINIB]
2 | > 30 µM (inactive) | > 30 µM (inactive) | > 30 µM (inactive) | > 30 µM (inactive) | COc1cc2ncnc(Oc3cccc(NC(=O)Nc4cc(C(C)(C)C(F)(F)F)on4)c3)c2cc1OC [CEP-32496]
3 | > 30 µM (inactive) | > 30 µM (inactive) | > 30 µM (inactive) | > 30 µM (inactive) | Cc1cc(Nc2ncc(Cl)c(Nc3ccccc3S(=O)(=O)C(C)C)n2)c(OC(C)C)cc1C1CCNCC1 [CERITINIB]
4 | > 30 µM (inactive) | > 30 µM (inactive) | > 30 µM (inactive) | > 30 µM (inactive) | COc1c(OCCCN2CCOCC2)ccc2c1N=C(NC(=O)c1cnc(N)nc1)N1CCN=C21 [COPANLISIB]
5 | > 30 µM (inactive) | > 30 µM (inactive) | > 30 µM (inactive) | > 30 µM (inactive) | COCC(=O)NC/C=C/c1ccc2ncnc(Nc3ccc(Oc4ccc(C)nc4)c(C)c3)c2c1 [CP-724714]
6 | > 30 µM (inactive) | > 30 µM (inactive) | > 30 µM (inactive) | > 30 µM (inactive) | C#Cc1cccc(Nc2ncnc3cc(OC)c(OCCCCCCC(=O)NO)cc23)c1 [CUDC-101]
7 | > 30 µM (inactive) | > 30 µM (inactive) | > 30 µM (inactive) | > 30 µM (inactive) | Cc1cccc(-c2nn3c(c2-c2ccnc4ccc(C(N)=O)cc24)CCC3)n1 [GALUNISERTIB]
8 | > 30 µM (inactive) | > 30 µM (inactive) | > 30 µM (inactive) | > 30 µM (inactive) | COc1ccc(S(=O)(=O)N(C(C)=O)c2ccccc2/C=C/c2cc[n+]([O-])cc2)cc1 [HMN-214]
9 | > 30 µM (inactive) | > 30 µM (inactive) | > 30 µM (inactive) | > 30 µM (inactive) | CNC(=O)c1cccc2cc(Oc3ccnc4cc(OCC5(N)CC5)c(OC)cc34)ccc12 [LUCITANIB]
10 | > 30 µM (inactive) | > 30 µM (inactive) | > 30 µM (inactive) | > 30 µM (inactive) | NC1(c2ccc(-c3nc4ccn5c(=O)[nH]nc5c4cc3-c3ccccc3)cc2)CCC1 [MK-2206]
11 | > 30 µM (inactive) | > 30 µM (inactive) | > 30 µM (inactive) | > 30 µM (inactive) | CN(C[C@@H]1COCCO1)S(=O)(=O)Nc1ccc2ccc3ncc(-c4cnn(C)c4)cc3c(=O)c2c1 [MK-2461]
12 | > 30 µM (inactive) | > 30 µM (inactive) | > 30 µM (inactive) | > 30 µM (inactive) | Cn1cc(-c2cnc3ccc4ccc(CS(=O)(=O)NCc5ccccn5)cc4c(=O)c3c2)cn1 [MK-8033]
13 | > 30 µM (inactive) | > 30 µM (inactive) | > 30 µM (inactive) | > 30 µM (inactive) | Cc1cnc(NC(=O)Nc2cc(Br)c(C)cc2OC[C@@H]2CNCCO2)cn1 [RABUSERTIB]
14 | > 30 µM (inactive) | > 30 µM (inactive) | > 30 µM (inactive) | > 30 µM (inactive) | CO[C@H]1C[C@@H]2CC[C@@H](C)[C@@](O)(O2)C(=O)C(=O)N2CCCC[C@H]2C(=O)O[C@H]([C@H](C)C[C@@H]2CC[C@@H](OP(C)(C)=O)[C@H](OC)C2)CC(=O)[C@H](C)/C=C(\C)[C@@H](O)[C@@H](OC)C(=O)[C@H](C)C[C@H](C)/C=C/C=C/C=C/1C [RIDAFOROLIMUS]
15 | > 30 µM (inactive) | > 30 µM (inactive) | > 30 µM (inactive) | > 30 µM (inactive) | N#CC1(c2ccc(NC(=O)c3cccnc3NCc3ccncc3)cc2)CCCC1 [RIVOCERANIB]
16 | > 30 µM (inactive) | > 30 µM (inactive) | > 30 µM (inactive) | > 30 µM (inactive) | O=c1[nH]ccc2cc(OC3CCNCC3)ccc12 [SAR-407899 FREE BASE]
17 | > 30 µM (inactive) | 1.93 µM (active) | 6.41 µM (active) | > 30 µM (inactive) | Cn1cc(-c2cnn3c(N)c(Br)c([C@@H]4CCCNC4)nc23)cn1 [SCH-900776]
18 | > 30 µM (inactive) | > 30 µM (inactive) | > 30 µM (inactive) | > 30 µM (inactive) | CO[C@H]1C[C@@H]2CC[C@@H](C)[C@@](O)(O2)C(=O)C(=O)N2CCCC[C@H]2C(=O)O[C@H]([C@H](C)C[C@@H]2CC[C@@H](O)[C@H](OC)C2)CC(=O)[C@H](C)/C=C(\C)[C@@H](O)[C@@H](OC)C(=O)[C@H](C)C[C@H](C)/C=C/C=C/C=C/1C [SIROLIMUS]
19 | > 30 µM (inactive) | > 30 µM (inactive) | > 30 µM (inactive) | > 30 µM (inactive) | CO[C@H]1C[C@@H]2CC[C@@H](C)[C@@](O)(O2)C(=O)C(=O)N2CCCC[C@H]2C(=O)O[C@H]([C@H](C)C[C@@H]2CC[C@@H](OC(=O)C(C)(CO)CO)[C@H](OC)C2)CC(=O)[C@H](C)/C=C(\C)[C@@H](O)[C@@H](OC)C(=O)[C@H](C)C[C@H](C)/C=C/C=C/C=C/1C [TEMSIROLIMUS]
20 | > 30 µM (inactive) | > 30 µM (inactive) | > 30 µM (inactive) | > 30 µM (inactive) | COc1cc2c(Nc3ccc(Cl)c(Cl)c3F)ncnc2cc1OC[C@@H]1C[C@@H]2CN(C)C[C@@H]2C1 [TESEVATINIB]
21 | > 30 µM (inactive) | > 30 µM (inactive) | > 30 µM (inactive) | > 30 µM (inactive) | O=C(Cc1ccc(-c2ccc(OCCN3CCOCC3)cc2)cn1)NCc1ccccc1 [TIRBANIBULIN]
22 | > 30 µM (inactive) | > 30 µM (inactive) | > 30 µM (inactive) | > 30 µM (inactive) | C[C@@H](NC(=O)c1ncnc(N)c1Cl)c1ncc(C(=O)Nc2cc(C(F)(F)F)c(Cl)cn2)s1 [TOVORAFENIB]

Row | Structure (SMILES) | Kd [1] | Kd [2] | Kd [3] | Kd [4]
23 | CC(C)(C)c1nc(-c2cccc(NS(=O)(=O)c3c(F)cccc3F)c2F)c(-c2ccnc(N)n2)s1 [DABRAFENIB] | > 30 µM (inactive) | > 30 µM (inactive) | 0.034 µM (active) | > 30 µM (inactive)
24 | O=C(Nc1nc2cccc(-c3ccc(CN4CCS(=O)(=O)CC4)cc3)n2n1)C1CC1 [FILGOTINIB] | > 30 µM (inactive) | > 30 µM (inactive) | > 30 µM (inactive) | > 30 µM (inactive)
25 | CCOc1cc2ncc(C#N)c(Nc3ccc(F)c(Cl)c3)c2cc1NC(=O)/C=C/CN(C)C [PELITINIB] | > 30 µM (inactive) | > 30 µM (inactive) | > 30 µM (inactive) | > 30 µM (inactive)
26 | CNC(=O)c1cc(Oc2ccc(NC(=O)Nc3cc(C(C)(C)C)nn3-c3ccc4ncccc4c3)c(F)c2)ccn1 [REBASTINIB] | > 30 µM (inactive) | > 30 µM (inactive) | > 30 µM (inactive) | > 30 µM (inactive)
27 | CN1CCN(CCOc2cc(OC3CCOCC3)c3c(Nc4c(Cl)ccc5c4OCO5)ncnc3c2)CC1 [SARACATINIB] | > 30 µM (inactive) | > 30 µM (inactive) | > 30 µM (inactive) | > 30 µM (inactive)
28 | Cc1cc(Nc2ncnc3ccc(NC4=NC(C)(C)CO4)cc23)ccc1Oc1ccn2ncnc2c1 [TUCATINIB] | > 30 µM (inactive) | > 30 µM (inactive) | > 30 µM (inactive) | > 30 µM (inactive)
